Results from US5599548A, “Skin care compositions containing fatty acid amides and retinol or retinyl ester” (priority 1995, dated 1997).
Like-named read-outs stand apart in the source and are kept apart here.

How the values were obtained:
Human keratinocytes = assay: 3H-Thymidine incorporation (keratinocyte proliferation); type: cell-based; settings: for activity at 0.25 µM / activity at 0.025 µM / activity at 0.0025 µM: Homo sapiens, Keratinocyte; for activity at 0.25 µM / mean Thymidine incorp./μg protein ± s.d: 2.5 × 10^-7 M; for activity at 0.0025 µM: 2.5 × 10^-9 M; for effect on keratinocyte proliferation, in words: concentrations as in the respective Example
Experimental: (§1) Human keratinocytes, isolated from neonatal foreskin by trypsin treatment were grown in Dulbecco Modification Eagle (DME) Hams F12 (1:1) medium/10% fetal calf serum in the presence of irradiated 3T3 mouse fibroblasts for establishing dividing keratinocyte colonies. Cells were grown under the above condition until their second passage and kept frozen for future use. […] On day 7, when the cells were 80-90% confluent, they were trypsinized and plated in the serum-free medium for the various experiments.
The incorporation of […] by cultured keratinocytes was used as an assay of keratinocyte proliferation. Thymidine is one of four deoxynucleosides which are the monomeric units of DNA, the universal library of genetic information in the animal kingdom. Prior to cell division of a somatic cell such as a keratinocyte, the complete genome of the cell undergoing cell division is replicated. This involves large scale DNA synthesis by the cell and enables both daughter cells to receive identical copies of the genetic material. When ^3 H-thymidine is included in the culture media of keratinocytes which are synthesizing DNA in preparation for cell division then the labelled nucleoside is incorporated into the newly synthesized DNA. The extent of incorporation of ^3 H-thymidine into a population of cells is proportional to the rate of DNA synthesis by this population of cells and therefore an indication of their cellular proliferation.
Keratinocytes (that were cultured as described above) were plated in 24 well plates at a density of 40,000 cells per well in 1 ml media. After incubation for four days or until the cells were 60-70% confluent, the media was changed. Test compounds were added (in triplicate) to the wells 24 hours after the media change, and four hours later 1μCi^3 H-Thymidine in 50 μl media was added per well. Cells were incubated for a further 24 hours. Media was removed from the cells, 10% ice cold trichloroacetic acid (TCA) added and plates were incubated on ice for 30 minutes. Cells were washed five times with 5% TCA and allowed to dissolve in 500 μl 0.1M NaOH for at least one hour (usually overnight). The preparations were neutralized with 0.1M HCl; 50 μl of the cell preparation was used to determine total protein content. Disintegrations per minute (DPM) from ^3 H labelling of DNA was determined by liquid scintillation counting of […] of the cell preparation. Thymidine incorporation results were expressed as DPM/μg protein.

[1] = system: TGase I (keratinocyte transglutaminase level); assay: Transglutaminase (TGase I) ELISA assay (keratinocyte differentiation); type: cell-based, human; settings: for effect on keratinocyte TG1 levels / differentiation, in words: concentrations as in the respective Example
Experimental: as §1
During the process of terminal differentiation in the epidermis, a 15 nm thick layer of protein, known as the cornified envelope (CE) is formed on the inner surface of the cell periphery. The CE is composed of numerous distinct proteins which have been cross-linked together by the formation of N^ε -(γ-glutamyl) lysine isodipeptide bonds catalyzed by the action of at least two different transglutaminases (TGases) expressed in the epidermis. TGase I is expressed in abundance in the differentiated layers of the epidermis, especially the granular layer, but is absent in the undifferentiated basal epidermis. Thus TGase I is a useful marker of epidermal keratinocyte differentiation with high TGase I levels indicating a more differentiated state. An ELISA based TGase I assay, using a TGase I antibody, was used to assess the state of differentiation of the cultured keratinocytes in the examples that follow.
Keratinocytes (cultured as described above) were plated in 96 well plates at a density of 3,000 cells per well in 200 μl media. After incubation for four days the media was changed to media containing test compounds (six replicates per test). The cells were cultured for a further 72 hours after which time the media was aspirated and the plates stored at -70° C. Plates were removed from the freezer, and the cells washed with PBS. 100 μl sterile water was added and the cells were freeze fractured by freezing at -70° C. then thawing. The cells were incubated for one hour at room temperature (R/T) with PBS/3% BSA (wash buffer, bovine serum albumin), then rinsed with a fresh aliquot of wash buffer. Cells were incubated with 50 μl of primary antibodies monoclonal anti-human transglutaminase (IgG) obtained from Amersham (mouse) diluted 1:300 in wash buffer for one hour, 37° C. then rinsed two times with wash buffer. Cells were then incubated with 50 μl of secondary antibody (Feb fragment, peroxidase conjugated anti-mouse IgG obtaining from Amersham) diluted 1:200 in wash buffer for one hour at 37° C., then rinsed two times with wash buffer. Cells were incubated with substrate solution (4 mg o-phenylene diamine and 3.3 μl 30% H2 O2 in 10 ml 0.1M citrate buffer pH 5.0) for five minutes, R/T, in darkness (under aluminum foil). The reaction was stopped by the addition of 50 μl 4N H2 SO4. The absorbance of samples was read at 492 nm in the plate reader. Out of the six replicates, four were treated with both antibodies, two were treated only with the secondary antibody (i.e., to determine background binding of enzyme conjugated Ab). TGase levels were determined by subtracting background from the readings from each treatment and determining mean ±s.d. for the replicates exposed to both Ab.

[2] = 24 h, Table 7A, 24 h, n = 9, read-out: mean Thymidine incorp/μg protein ± s.d
[3] = 24 h, Table 7A, 24 h, n = 9, read-out: thymidine incorporation, % control

For CC1=C(/C=C/C(C)=C/C=C/C(C)=C/CO)C(C)(C)CCC1 [ROH, retinol], the activity at 0.25 µM (Human keratinocytes; 24 h, Table 1A, first RA/ROH pair, 24 h, n = 3, read-out: thymidine incorporation, % control) was 106%, the activity at 0.25 µM (Human keratinocytes; 24 h, Table 1A, second RA/ROH pair, 24 h, n = 3, read-out: thymidine incorporation, % control) was 97% and the activity at 0.25 µM (Human keratinocytes; 24 h, Table 1A, third RA/ROH pair, 24 h, n = 3, read-out: thymidine incorporation, % control) was 94%. It also gave an activity at 0.025 µM (Human keratinocytes; 24 h, Table 2A, RA, ROH 2.5 × 10^-8 M, linoleoyl-DEA 10^-9 M, alone or combined, 24 h, n = 9, read-out: thymidine incorporation, % control) of 102%, an activity at 0.025 µM (Human keratinocytes; 24 h, Table 2A, RA, ROH 2.5 × 10^-8 M, linoleoyl-DEA 10^-9 M, alone or combined, 24 h, normalized to ethanol control, n = 9, read-out: mean Thymidine incorp./μg protein ± s.d) of 102 ± 15.2% and an activity at 0.025 µM (Human keratinocytes; 24 h, Table 4C, RA, retinol 2.5 × 10^-8 M, palmitoyl-MEA 10^-6 M, alone or combined, n = 3, read-out: thymidine incorporation, % control) of 101%. The activity at 0.025 µM (Human keratinocytes; 24 h, Table 4D, RA, ROH 2.5 × 10^-8 M, linoleoyl-MEA 10^-9 M, alone or combined, 24 h, n = 3, read-out: thymidine incorporation, % control) was 106%, the activity at 0.025 µM (Human keratinocytes; 24 h, Table 4D, RA, ROH 2.5 × 10^-8 M, linoleoyl-MEA 10^-9 M, alone or combined, 24 h, normalized to ethanol control, n = 3, read-out: mean Thymidine incorp./μg protein ± s.d) was 106 ± 27% and the activity at 0.25 µM (Human keratinocytes; [2]) was 102 ± 16.5%. The activity at 0.25 µM (Human keratinocytes; [3]) was 102%, the activity at 0.025 µM (Human keratinocytes; 24 h, Table 7A, 2.5 × 10^-8 M, 24 h, n = 9, read-out: mean Thymidine incorp/μg protein ± s.d) was 101 ± 15.2% and the activity at 0.025 µM (Human keratinocytes; 24 h, Table 7A, 2.5 × 10^-8 M, 24 h, n = 9, read-out: thymidine incorporation, % control) was 101%. For the same compound, the activity at 0.0025 µM (Human keratinocytes; [2]) was 99.5 ± 12.3%, the activity at 0.0025 µM (Human keratinocytes; [3]) was 100% and the activity at 0.025 µM (Human keratinocytes; Table 4C, RA, retinol 2.5 × 10^-8 M, palmitoyl-MEA 10^-6 M, alone or combined, control = 1.000, n = 3, read-out: mean Thymidine incorp./μg protein ± s.d) was 101 ± 8.8%. The “mean Thymidine incorp./μg protein ± s.d” value (Human keratinocytes; Table 1A, first RA/ROH pair, 24 h, n = 3) was 2218 ± 73 DPM/μg protein, the “mean Thymidine incorp./μg protein ± s.d” value (Human keratinocytes; Table 1A, second RA/ROH pair, 24 h, n = 3) was 2034 ± 46 DPM/μg protein and the “mean Thymidine incorp./μg protein ± s.d” value (Human keratinocytes; Table 1A, third RA/ROH pair, 24 h, n = 3) was 1977 ± 19 DPM/μg protein. For the same compound, the “effect on keratinocyte proliferation, in words” value (Human keratinocytes) was “minor, non-significant stimulatory effect on keratinocyte proliferation”, the “effect on keratinocyte proliferation, in words” value (Human keratinocytes; listed as Retinol) was “completely ineffective at increasing keratinocyte proliferation” and the “effect on keratinocyte proliferation, in words” value (Human keratinocytes; listed as retinol) was “Neither 10^-8 M palmitoyl-MEA nor 2.5×10^-8 M retinol had an effect on keratinocyte proliferation”. It also gave an activity at 0.25 µM ([1]; Homo sapiens, Keratinocyte, 72 h, Table 1B, 2.5 × 10^-7 M, 72 h, n = 3, read-out: Transglutaminase level, % control) of 67%, an activity at 0.025 µM ([1]; Homo sapiens, Keratinocyte, 72 h, Table 1B, 2.5 × 10^-8 M, 72 h, n = 3, read-out: Transglutaminase level, % control) of 86% and an activity at 0.0025 µM ([1]; Homo sapiens, Keratinocyte, 72 h, Table 1B, 2.5 × 10^-9 M, 72 h, n = 3, read-out: Transglutaminase level, % control) of 97%. For the same compound, the activity at 0.25 µM ([1]; Homo sapiens, Keratinocyte, 72 h, Table 2B, RA, ROH 2.5 × 10^-7 M, linoleoyl-DEA 10^-6 M, alone or combined, 72 h, n = 9, read-out: TGase (TG1) level, % control) was 59%, the activity at 0.25 µM ([1]; Homo sapiens, Keratinocyte, 72 h, Table 6A, RA, ROH 2.5 × 10^-7 M, formamide 10^-7 M, alone or combined, 72 h, n = 3, read-out: TGase (TG1) level, % control) was 71% and the activity at 0.25 µM ([1]; Homo sapiens, Keratinocyte, 72 h, Table 6B, RA, ROH 2.5 × 10^-7 M, acetamide 10^-7 M, alone or combined, 72 h, n = 3, read-out: TGase (TG1) level, % control) was 65%. It also gave an activity at 0.25 µM ([1]; Homo sapiens, Keratinocyte, 72 h, Table 6C, RA, ROH 2.5 × 10^-7 M, pentanoyl-DEA 10^-7 M, alone or combined, 72 h, n = 3, read-out: TGase (TG1) level, % control) of 67%, an activity at 0.25 µM ([1]; Homo sapiens, Keratinocyte, Table 4A, RA, retinol 2.5 × 10^-7 M, cocoyl-DEA 10^-7 M, alone or combined, n = 3, read-out: TGase (TG1) level, % control) of 82% and an activity at 0.025 µM ([1]; Homo sapiens, Keratinocyte, Table 4B, RA, retinol 2.5 × 10^-8 M, cocoyl-MEA 10^-8 M, alone or combined, n = 3, read-out: TGase (TG1) level, % control) of 44%. The activity at 0.25 µM ([1]; Homo sapiens, Keratinocyte, Table 5A, RA, retinol 2.5 × 10^-7 M, linoleic acid 10^-6 M, alone or combined, n = 3, read-out: TGase (TG1) level, % control) was 39%, the activity at 0.025 µM ([1]; Homo sapiens, Keratinocyte, Table 5B, RA, retinol 2.5 × 10^-8 M, methyl linoleate 10^-8 M, alone or combined, n = 3, read-out: TGase (TG1) level, % control) was 69% and the “mean Transglutaminase ELISA level ± s.d” value ([1]; Table 1B, 2.5 × 10^-7 M, 72 h, n = 3) was 0.290 ± 0.043. For the same compound, the “mean Transglutaminase ELISA level ± s.d” value ([1]; Table 1B, 2.5 × 10^-8 M, 72 h, n = 3) was 0.371 ± 0.054, the “mean Transglutaminase ELISA level ± s.d” value ([1]; Table 1B, 2.5 × 10^-9 M, 72 h, n = 3) was 0.416 ± 0.035 and the “mean TGase ± s.d” value ([1]; Table 2B, RA, ROH 2.5 × 10^-7 M, linoleoyl-DEA 10^-6 M, alone or combined, 72 h, normalized to ethanol control, n = 9) was 0.594 ± 0.542. For the same compound, the “mean TGase ± s.d” value ([1]; Table 4A, RA, retinol 2.5 × 10^-7 M, cocoyl-DEA 10^-7 M, alone or combined, n = 3) was 0.145 ± 0.070, the “mean TGase ± s.d” value ([1]; Table 4B, RA, retinol 2.5 × 10^-8 M, cocoyl-MEA 10^-8 M, alone or combined, n = 3) was 0.054 ± 0.013 and the “mean TGase ± s.d” value ([1]; Table 5A, RA, retinol 2.5 × 10^-7 M, linoleic acid 10^-6 M, alone or combined, n = 3) was 0.042 ± 0.112. The “mean TGase ± s.d” value ([1]; Table 5B, RA, retinol 2.5 × 10^-8 M, methyl linoleate 10^-8 M, alone or combined, n = 3) was 0.199 ± 0.093, the “mean TGase level ± s.d” value ([1]; Table 6A (Effect on Keratinocyte TGase), RA, ROH 2.5 × 10^-7 M, formamide 10^-7 M, alone or combined, 72 h, n = 3) was 0.351 ± 0.046 and the “mean TGase level ± s.d” value ([1]; Table 6B (Effect on Keratinocyte TGase), RA, ROH 2.5 × 10^-7 M, acetamide 10^-7 M, alone or combined, 72 h, n = 3) was 0.317 ± 0.043. The “mean TGase level ± s.d” value ([1]; Table 6C (Effect on Keratinocyte TGase), RA, ROH 2.5 × 10^-7 M, pentanoyl-DEA 10^-7 M, alone or combined, 72 h, n = 3) was 0.290 ± 0.043, the “effect on keratinocyte TG1 levels / differentiation, in words” value ([1]; listed as Retinol) was “significantly less effective than retinoic acid at inhibiting keratinocyte differentiation” and the “effect on keratinocyte TG1 levels / differentiation, in words” value ([1]; listed as retinol) was “decrease in transglutaminase level was dose dependent”.
